Starred links: 1 amine or outer side, 2 acyl side, 3 side chain; linkers in the order of their positions; H or OH if unused. Positions of bridges follow the written chain, without caps; N, C: chain ends. Residues, ends and D or L forms follow the SMILES beside them. Groups on a side chain read outwards from the residue. *: point of attachment. C20 diacid = O=C(O)CCCCCCCCCCCCCCCCCCC(=O)*; C18 diacid = O=C(O)CCCCCCCCCCCCCCCCC(=O)*; γGlu = O=C(O)[C@H](CCC(=O)[*:2])N[*:1]; AEEA = NCCOCCOCC(=O)O
Legend:
[1] = target: T1, human calcitonin receptor (Homo sapiens, UniProt P30988); experiment: Assay (II)a functional CRE-luciferase assay, human calcitonin receptor; type: cell-based; conditions: Table 7; human calcitonin (CTa) receptor
T1 construct: expressed in transfected cells; host or cells: BHK570
T1 sequence (P30988 25-474): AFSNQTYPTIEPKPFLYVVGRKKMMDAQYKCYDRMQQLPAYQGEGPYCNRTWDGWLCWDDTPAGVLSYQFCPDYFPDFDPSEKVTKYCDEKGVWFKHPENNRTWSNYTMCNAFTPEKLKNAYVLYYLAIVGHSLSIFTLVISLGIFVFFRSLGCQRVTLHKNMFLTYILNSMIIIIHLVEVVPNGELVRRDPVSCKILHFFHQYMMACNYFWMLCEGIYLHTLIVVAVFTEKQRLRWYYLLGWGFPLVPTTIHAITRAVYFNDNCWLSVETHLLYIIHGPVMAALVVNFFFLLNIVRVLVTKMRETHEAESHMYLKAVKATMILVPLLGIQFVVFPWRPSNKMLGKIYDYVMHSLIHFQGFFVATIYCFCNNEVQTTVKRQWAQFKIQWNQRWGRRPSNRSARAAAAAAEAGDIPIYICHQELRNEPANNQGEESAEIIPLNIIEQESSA
Source text: 1. Luciferase Assay Outline
Activation of calcitonin and amylin (coexpression of calcitonin receptor and receptor activity modifying proteins (RAMP)) receptors lead to increased intracellular concentrations of cAMP. Consequently, transcription is activated by promoters containing multiple copies of the cAMP response element (CRE). It is thus possible to measure amylin activity by the use of a CRE luciferase reporter gene introduced into BHK cells also expressing calcitonin or amylin receptors.
A BHK570 cell line was stably transfected with the human calcitonin receptor and a CRE-responsive luciferase reporter gene. The cell line was further transfected with RAMP-3, using standard methods. This turns the calcitonin receptor into an amylin 3(a) receptor. Methotrexate, Neomycin, and Hygromycin are selection markers for luciferase, the calcitonin receptor, and RAMP-3, respectively.
To perform activity assays, BHK calcitonin (a) receptor- or amylin 3(a)-receptor/CRE-luc cells were seeded in white 96 well culture plates at a density of about 20.000 cells/well. […] Further, 50 μl/well of standard or sample in assay buffer were added. After 3 hours incubation at 37° C. and 5% CO2, the assay medium with standard or sample were removed and replaced by 100 μl/well PBS. Further, 100 μl/well LucLite™ was added. The plates were sealed and incubated at room temperature for 30 minutes. Finally, luminescence was measured on a TopCounter (Packard) in SPC (single photon counting) mode.

[2] = Assay (III) ThT fibrillation assay for physical stability; type: physicochemical; conditions: ThT fibrillation assay
Source text: ASSAY (III)—ThT Fibrillation Assays for the Assessment of Physical Stability of Protein formulations Low physical stability of a polypeptide may lead to amyloid fibril formation, which is observed as well-ordered, thread-like macromolecular structures in the sample eventually resulting in gel formation. This has traditionally been measured by visual inspection of the sample. However, that kind of measurement is very subjective and depending on the observer. Therefore, the application of a small molecule indicator probe is much more advantageous. Thioflavin T (ThT) is such a probe and has a distinct fluorescence signature when binding to fibrils [Naiki et al. (1989) Anal. Biochem. 177, 244-249; LeVine (1999) Methods. Enzymol. […], 274-284]. The time course for fibril formation can be described by a sigmoidal curve with the following expression [Nielsen et al. (2001) Biochemistry 40, 6036-6046]: [formula] Here, F is the ThT fluorescence at the time t. The constant t0 is the time needed to reach 50% of maximum fluorescence. […] Few of those intermediates nucleate to form a template onto which further intermediates may assembly and the fibrillation proceeds. The lag-time corresponds to the interval in which the critical mass of nucleus is built up and the apparent rate constant is the rate with which the fibril itself is formed. Sample Preparation Samples were prepared freshly before each assay. Each sample composition is described in each example. The pH of the sample was adjusted to the desired value using appropriate amounts of concentrated NaOH and HClO4 or HCl. Thioflavin T was added to the samples from a stock solution in H2O to a final concentration of 1 μM. Sample aliquots of 200 μl were placed in a 96 well microtiter plate (Packard OptiPlate™-96, white polystyrene). Usually, four or eight replica of each sample (corresponding to one test condition) were placed in one column of wells. The plate was sealed with Scotch Pad (Qiagen). Incubation and Fluorescence Measurement Incubation at given temperature, shaking and measurement of the ThT fluorescence emission were done in a Fluoroskan Ascent FL fluorescence platereader or Varioskan platereader (Thermo Labsystems). The temperature was adjusted to 37° C. The orbital shaking was adjusted to 960 rpm with an amplitude of 1 mm in all the presented data. Fluorescence measurement was done using excitation through a 444 nm filter and measurement of emission through a 485 nm filter. Each run was initiated by incubating the plate at the assay temperature for 10 min. The plate was measured every 20 minutes for a desired period of time. Between each measurement, the plate was shaken and heated as described. Data Handling The measurement points were saved in Microsoft Excel format for further processing and curve drawing and fitting was performed using GraphPad Prism. The background emission from ThT in the absence of fibrils was negligible. The data points are typically a mean of four or eight samples and shown with standard deviation error bars. Only data obtained in the same experiment (i.e. samples on the same plate) are presented in the same graph ensuring a relative measure of fibrillation between experiments. The data set may be fitted to Eq. (1). However, since full sigmodial curves in this case are not always achieved during the measurement time, the degree of fibrillation is expressed as ThT fluorescence tabulated as the mean of the samples and shown with the standard deviation at various time points. Measurement of Initial and Final Concentrations The polypeptide concentration in each of the tested formulations were measured both before application in the ThT fibrillation assay (“Initial”) and after completion of the ThT fibrillation (“After ThT assay”). Concentrations were determined by reverse HPLC methods using a pramlintide standard as a reference. Before measurement after completion 150 μl was collected from each of the replica and transferred to an Eppendorf tube. […]

| EC50 [1] [nM] | ThT pH 4.0 lag time (h) [2] [h] | Compound |
| --- | --- | --- |
| 0.057 | – | CC[C@H](C)[C@H](NC(=O)[C@@H]1CCCN1C(=O)CNC(=O)[C@H](Cc1ccccc1)NC(=O)[C@H](CC(N)=O)NC(=O)[C@H](CC(N)=O)NC(=O)[C@H](CO)NC(=O)[C@H](CO)NC(=O)[C@H](Cc1c[nH]cn1)NC(=O)[C@H](CCCNC(=N)N)NC(=O)[C@H](CC(C)C)NC(=O)[C@H](Cc1ccccc1)NC(=O)[C@H](CC(N)=O)NC(=O)[C@H](C)NC(=O)[C@H](CC(C)C)NC(=O)[C@H](CCCNC(=N)N)NC(=O)[C@H](CCC(N)=O)NC(=O)[C@@H](NC(=O)[C@H](C)NC(=O)[C@@H]1CSSC[C@H](NC(=O)[C@H](CCCCN)NC(=O)CC[C@H](NC(=O)CCCCCCCCCCCCCCCCCCC(=O)O)C(=O)O)C(=O)N[C@@H](CC(N)=O)C(=O)N[C@@H]([C@@H](C)O)C(=O)N[C@@H](C)C(=O)N[C@@H]([C@@H](C)O)C(=O)N1)[C@@H](C)O)C(=O)N[C@@H](CC(C)C)C(=O)N1CCC[C@H]1C(=O)N1CCC[C@H]1C(=O)N[C@H](C(=O)N[C@@H](CC(N)=O)C(=O)N[C@H](C(=O)NCC(=O)N[C@@H](CO)C(=O)N[C@@H](CC(N)=O)C(=O)N[C@H](C(=O)N1CCC[C@H]1C(N)=O)[C@@H](C)O)C(C)C)[C@@H](C)O [Example 154, N-alpha-[(S)-4-Carboxy-4-(19-carboxynonadecanoylamino)butyryl]-[Arg17,Pro37]-pramlintide] ({C20 diacid-γGlu}-KCNTATCATQRLANFLRHSSNNFGPILPPTNVGSNTP-NH2; disulfide 2-7 (inferred); C-terminus assumed) |
| – | 10 | CC[C@H](C)[C@H](NC(=O)[C@H](CCCCNC(=O)COCCOCCNC(=O)COCCOCCNC(=O)CC[C@H](NC(=O)CCCCCCCCCCCCCCCCC(=O)O)C(=O)O)NC(=O)CNC(=O)[C@H](Cc1ccccc1)NC(=O)[C@H](CC(N)=O)NC(=O)[C@H](CC(N)=O)NC(=O)[C@H](CO)NC(=O)[C@H](CO)NC(=O)[C@H](Cc1c[nH]cn1)NC(=O)[C@@H](NC(=O)[C@H](CC(C)C)NC(=O)[C@H](Cc1ccccc1)NC(=O)[C@H](CCC(=O)O)NC(=O)[C@H](C)NC(=O)[C@H](CC(C)C)NC(=O)[C@H](CCCNC(=N)N)NC(=O)[C@H](CCC(N)=O)NC(=O)[C@@H](NC(=O)[C@H](C)NC(=O)[C@@H]1CSSC[C@H](NC(=O)[C@@H](N)CCCCN)C(=O)N[C@@H](CC(N)=O)C(=O)N[C@@H]([C@@H](C)O)C(=O)N[C@@H](C)C(=O)N[C@@H]([C@@H](C)O)C(=O)N1)[C@@H](C)O)C(C)C)C(=O)N[C@@H](CC(C)C)C(=O)N1CCC[C@H]1C(=O)N1CCC[C@H]1C(=O)N[C@H](C(=O)N[C@@H](CC(N)=O)C(=O)N[C@H](C(=O)NCC(=O)N[C@@H](CO)C(=O)N[C@@H](CC(N)=O)C(=O)N[C@H](C(=O)N[C@@H](Cc1ccc(O)cc1)C(N)=O)[C@@H](C)O)C(C)C)[C@@H](C)O [Example 126, N-epsilon25-[2-(2-{2-[2-(2-{2-[(S)-4-Carboxy-4-(17-carboxyheptadecanoylamino)butyrylamino]ethoxy}ethoxy)acetylamino]ethoxy}ethoxy)acetyl]-[Glu14,Lys25]-pramlintide] (H-KCNTATCATQRLAEFLVHSSNNFGK([AEEA-AEEA-γGlu-C18 diacid])ILPPTNVGSNTY-NH2; disulfide 2-7 (inferred)) |
| – | 9 | CC(C)C[C@H](NC(=O)[C@H](CCCNC(=N)N)NC(=O)[C@H](CCC(N)=O)NC(=O)[C@@H](NC(=O)[C@H](C)NC(=O)[C@@H]1CSSC[C@H](NC(=O)[C@@H](N)CCCCNC(=O)CC[C@H](NC(=O)CCCCCCCCCCCCCCCCCCC(=O)O)C(=O)O)C(=O)N[C@@H](CC(N)=O)C(=O)N[C@@H]([C@@H](C)O)C(=O)N[C@@H](C)C(=O)N[C@@H]([C@@H](C)O)C(=O)N1)[C@@H](C)O)C(=O)N[C@@H](C)C(=O)N[C@@H](CCC(=O)O)C(=O)N[C@@H](Cc1ccccc1)C(=O)N[C@@H](CC(C)C)C(=O)N[C@@H](Cc1c[nH]cn1)C(=O)N[C@@H](Cc1c[nH]cn1)C(=O)N[C@@H](CO)C(=O)N[C@@H](CO)C(=O)N[C@@H](CCC(N)=O)C(=O)N[C@@H](CC(N)=O)C(=O)N[C@@H](Cc1ccccc1)C(=O)NCC(=O)N[C@@H](C)C(=O)N1CCC[C@H]1C(=O)N[C@@H](CC(C)C)C(=O)N[C@@H](CO)C(=O)N[C@@H](CO)C(=O)N[C@H](C(=O)N[C@@H](CC(N)=O)C(=O)N[C@H](C(=O)NCC(=O)N[C@@H](CO)C(=O)N[C@@H](CC(N)=O)C(=O)N[C@H](C(=O)N1CCC[C@H]1C(N)=O)[C@@H](C)O)C(C)C)[C@@H](C)O [Example 151, N-epsilon1-[(S)-4-Carboxy-4-(19-carboxynonadecanoylamino)butyryl]-[Glu14,His17,Gln21,Ala25,Pro26,Ser28,Ser29,Pro37]-pramlintide] (H-K([γGlu-C20 diacid])CNTATCATQRLAEFLHHSSQNFGAPLSSTNVGSNTP-NH2; disulfide 2-7 (inferred)) |

— patent publication US8722849B2, “Polypeptides” (Novo Nordisk A/S, priority 2011, dated 2014)
